Source: patent US20150065447A1, “SURVIVAL BENEFIT IN PATIENTS WITH SOLID TUMORS WITH ELEVATED C-REACTIVE PROTEIN LEVELS” (Incyte Corporation, priority 2013, published 2015)
pIC50: −log10 of the molar value.

Columns and labels:
[1] = target: T1, human JAK1 (a.a. 837-1142) (Homo sapiens, UniProt P23458); experiment: In vitro JAK Kinase Assay (HTRF), JAK1; assay type: biochemical; conditions: 1 mM ATP
T1 construct: human JAK1 (a.a. 837-1142); His tag (N); made in house; host or cells: insect cells (baculovirus)
Protocol: (§1) The catalytic activity of JAK1 and JAK2 was assayed by measuring the phosphorylation of a biotinylated peptide. The phosphorylated peptide was detected by homogenous time resolved fluorescence (HTRF). […] Reactions were carried out at room temperature for 1 hr and then stopped with 20 μL 45 mM EDTA, 300 nM SA-APC, 6 nM Eu-Py20 in assay buffer (Perkin Elmer, Boston, Mass.). Binding to the Europium labeled antibody took place for 40 minutes and HTRF signal was measured on a Fusion plate reader (Perkin Elmer, Boston, Mass.).

[2] = target: T2, human JAK2 (a.a. 828-1132) (Homo sapiens, UniProt O60674); experiment: In vitro JAK Kinase Assay (HTRF), JAK2 (for JAK2/JAK1 ratio); assay type: biochemical; conditions: ratio of IC50s, 1 mM ATP
T2 construct: JAK2 (a.a. 828-1132); His tag (N); made in house; host or cells: insect cells (baculovirus)
Protocol: as §1

T2 sequence (O60674 828-1132): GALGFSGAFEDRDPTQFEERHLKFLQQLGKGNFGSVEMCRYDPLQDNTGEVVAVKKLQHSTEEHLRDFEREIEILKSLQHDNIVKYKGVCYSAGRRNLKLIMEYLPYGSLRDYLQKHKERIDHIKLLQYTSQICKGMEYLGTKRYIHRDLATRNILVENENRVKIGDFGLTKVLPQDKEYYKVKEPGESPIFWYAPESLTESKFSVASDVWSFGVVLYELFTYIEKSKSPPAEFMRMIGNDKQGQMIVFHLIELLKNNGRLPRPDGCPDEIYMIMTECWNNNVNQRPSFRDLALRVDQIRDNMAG
T1 sequence (P23458 849-1154): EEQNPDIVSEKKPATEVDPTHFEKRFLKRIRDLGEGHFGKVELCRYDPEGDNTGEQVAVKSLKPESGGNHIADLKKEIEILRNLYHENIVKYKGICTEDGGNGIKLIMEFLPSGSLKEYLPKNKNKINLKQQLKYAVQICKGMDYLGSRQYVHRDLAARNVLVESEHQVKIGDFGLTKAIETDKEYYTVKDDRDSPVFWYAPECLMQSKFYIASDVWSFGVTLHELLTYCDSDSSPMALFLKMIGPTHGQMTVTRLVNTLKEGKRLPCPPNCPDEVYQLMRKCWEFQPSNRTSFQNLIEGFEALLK

Structure (SMILES)	pIC50 [1]	JAK2/JAK1 [2]
N#CCC1(n2cc(-c3ncnc4[nH]ccc34)cn2)CN([C@H]2CC[C@@H](Oc3cc(CCO)nc(C(F)(F)F)n3)CC2)C1 [Compound 18, (l-(cis-4-{[6-(2-hydroxyethyl)-2-(trifluoromethyl)pyrimidin-4-yl]oxy}cyclohexyl)-3-[4-(7H-pyrrolo[2,3-d]pyrimidin-4-yl)-1H-pyrazol-1-yl]azetidin-3-yl}acetonitrile]	> 8.00	>10
CCNCc1cc(O[C@H]2CC[C@@H](N3CC(CC#N)(n4cc(-c5ncnc6[nH]ccc56)cn4)C3)CC2)nc(C(F)(F)F)c1 [Compound 19, {l-(cis-4-{[4-[(ethylamino)methyl]-6-(trifluoromethyl)pyridin-2-yl]oxy}cyclohexyl)-3-[4-(7H-pyrrolo[2,3-d]pyrimidin-4-yl)-1H-pyrazol-1-yl]azetidin-3-yl}acetonitrile]	> 8.00	>10
CC(C)(O)c1cc(O[C@H]2CC[C@@H](N3CC(CC#N)(n4cc(-c5ncnc6[nH]ccc56)cn4)C3)CC2)nc(C(F)(F)F)c1 [Compound 20, {1-(cis-4-{[4-(1-hydroxy-1-methylethyl)-6-(trifluoromethyl)pyridin-2-yl]oxy}cyclohexyl)-3-[4-(7H-pyrrolo[2,3-d]pyrimidin-4-yl)-1H-pyrazol-1-yl]azetidin-3-yl}acetonitrile]	> 8.00	>10
N#CCC1(n2cc(-c3ncnc4[nH]ccc34)cn2)CN([C@H]2CC[C@@H](Oc3cc(CN4CC[C@@H](O)C4)cc(C(F)(F)F)n3)CC2)C1 [Compound 21, {1-(cis-4-{[4-{[(3R)-3-hydroxypyrrolidin-1-yl]methyl}-6-(trifluoromethyl)pyridin-2-yl]oxy}cyclohexyl)-3-[4-(7H-pyrrolo[2,3-d]pyrimidin-4-yl)-1H-pyrazol-1-yl]azetidin-3-yl}acetonitrile]	> 8.00	>10
N#CCC1(n2cc(-c3ncnc4[nH]ccc34)cn2)CN([C@H]2CC[C@@H](Oc3cc(CN4CC[C@H](O)C4)cc(C(F)(F)F)n3)CC2)C1 [Compound 22, {1-(cis-4-{[4-{[(3S)-3-hydroxypyrrolidin-1-yl]methyl}-6-(trifluoromethyl)pyridin-2-yl]oxy}cyclohexyl)-3-[4-(7H-pyrrolo[2,3-d]pyrimidin-4-yl)-1H-pyrazol-1-yl]azetidin-3-yl}acetonitrile]	> 8.00	>10
C[C@@H](CO)NCc1cc(OC2CCN([C@H]3C[C@](CC#N)(n4cc(-c5ncnc6[nH]ccc56)cn4)C3)CC2)nc(C(F)(F)F)c1 [Compound 23, {trans-3-(4-{[4-({[(1S)-2-hydroxy-1-methylethyl]amino}methyl)-6-(trifluoromethyl)pyridin-2-yl]oxy}piperidin-1-yl)-1-[4-(7H-pyrrolo[2,3-d]pyrimidin-4-yl)-1H-pyrazol-1-yl]cyclobutyl}acetonitrile]	> 8.00	>10
C[C@@H](O)CNCc1cc(OC2CCN([C@H]3C[C@](CC#N)(n4cc(-c5ncnc6[nH]ccc56)cn4)C3)CC2)nc(C(F)(F)F)c1 [Compound 24, {trans-3-(4-{[4-({[(2R)-2-hydroxypropyl]amino}methyl)-6-(trifluoromethyl)pyridin-2-yl]oxy}piperidin-1-yl)-1-[4-(7H-pyrrolo[2,3-d]pyrimidin-4-yl)-1H-pyrazol-1-yl]cyclobutyl}acetonitrile]	> 8.00	>10
C[C@H](O)CNCc1cc(OC2CCN([C@H]3C[C@](CC#N)(n4cc(-c5ncnc6[nH]ccc56)cn4)C3)CC2)nc(C(F)(F)F)c1 [Compound 25, {trans-3-(4-{[4-({[(2S)-2-hydroxypropyl]amino}methyl)-6-(trifluoromethyl)pyridin-2-yl]oxy}piperidin-1-yl)-1-[4-(7H-pyrrolo[2,3-d]pyrimidin-4-yl)-1H-pyrazol-1-yl]cyclobutyl}acetonitrile]	> 8.00	>10
N#CC[C@]1(n2cc(-c3ncnc4[nH]ccc34)cn2)C[C@H](N2CCC(Oc3cc(CCO)cc(C(F)(F)F)n3)CC2)C1 [Compound 26, {trans-3-(4-{[4-(2-hydroxyethyl)-6-(trifluoromethyl)pyridin-2-yl]oxy}piperidin-1-yl)-1-[4-(7H-pyrrolo[2,3-d]pyrimidin-4-yl)-1H-pyrazol-1-yl]cyclobutyl}acetonitrile]	> 8.00	>10
